{
  "source": "patent US8927523B2",
  "about": "“Compound sea cucumber preparation and manufacturing method thereof” (Dalian Haiyantang Biology Co., Ltd., priority 2010, dated 2015)",
  "key": {"[1]": {"tested_on": "insulin resistance HepG2 cells", "assay": "Glycerin consumption of insulin resistance HepG2 cells (GPO-POD enzyme method)", "assay_type": "cell-based, Human", "details": "30 mg/L", "description": "(§1) Human liver cancer cell line HepG2 provided by Dalian Medical University is vaccinated in a DMEM culture medium which contains 10% volume fraction of fetal calf serum (supplementing penicillin, streptomycin […] respectively), and the culture medium is placed in a 5% CO2 cell culture box at 37° C. […] Incubate for 8 h in culture box in the conditions of 37° C. and 5% CO2 to form monolayer anchorage-dependent cells. Wash the cells twice with DMEM culture solution without fetal calf serum, then incubate the cells for 16 h with 5×10^−7 mol·L^−1 insulin culture solution in culture box in the conditions of 37° C. and 5% CO2. The HepG2 cells incubated for 16 h with insulin culture solution are model cells. Count the prepared cell suspension, adjust the cell concentration to 5×10^4·ml^−1, vaccinate on 96-well cell culture plate, 8-well in duplicate for each group, total amount of 200 uL for each well. The experiment is divided into 5 groups: normal control group, insulin resistance model group, compound sea cucumber preparation high and low dosage groups and metformin positive control group. Except the normal control group, each other group is incubated for 16 h after adding insulin with ultimate concentration of 5×10^−7 mol·L^−1 into culture solution so as to form insulin resistance model. […]"}, "[2]": {"tested_on": "insulin resistance HepG2 cells", "assay": "Glucose consumption of insulin resistance HepG2 cells (glucose oxidase method)", "assay_type": "cell-based, Human", "details": "30 mg/L", "description": "as §1"}, "[3]": {"tested_on": "experimental diabetic mice caused by alloxan", "assay": "Fasting plasma glucose of experimental diabetic mice caused by alloxan", "assay_type": "in vivo", "details": "200 mg/kg b.i.d. irrigating stomachs", "description": "Take male, 18˜22 g Kunming variety mice, randomly take 10 mice from them as normal control group. Other mice are injected with alloxan 50 mg/kg after fasting (water is allowed) for 16 h, determine the fasting plasma glucose (FPG) fasting for 5 h after the mice are stable for 15 days, mice with FPG>10 mmol/L are high plasma glucose model mice.\n10 mice for normal control group. Take 40 high plasma glucose mice, randomly divide into high plasma glucose model group, compound sea cucumber preparation high dosage (0.5 g/kg) group, compound sea cucumber preparation low dosage (0.25 g/kg) group and positive drug metformin 200 mg/kg group.\nMice of the compound sea cucumber preparation high dosage group and the compound sea cucumber preparation low dosage group are respectively treated with 0.025 g/ml and 0.0125 g/ml suspension of compound sea cucumber preparation and normal saline 0.2 mL/10 gBW by irrigating stomachs, mice of the metformin 200 mg/kg group are treated with […] metformin normal saline solution 0.2 mL/10 gBW by irrigating stomachs, while mice of the normal control group and high plasma glucose model group are treated with equal volume of normal saline by irrigating stomachs. Mice of each group are treated twice each day (b.i.d) continuously for 4 weeks."}, "[4]": {"tested_on": "insulin resistance HepG2 cells", "assay": "Cell proliferation of insulin resistance HepG2 cells with MTT method", "assay_type": "cell-based, Human", "details": "30 mg/L"}, "[5]": {"tested_on": "experimental diabetic mice caused by alloxan", "assay": "Glucose tolerance of experimental diabetic mice caused by alloxan", "assay_type": "in vivo", "details": "200 mg/kg b.i.d.", "description": "Building of mice high glucose model, animal grouping and treating ways are the same as above description.\n[formula] wherein, C is the plasma glucose value (mmol/L), t is the time after glucose load (h), i is the glucose value number; C0, C1, C2, C3, C4 are respectively plasma glucose value of before glucose load (0 min) and 30 min, 60 min, 120 min and 240 min after glucose load."}, "[6]": {"details": "24 h, compared with model group"}, "[7]": {"details": "vs high plasma glucose model group"}, "[8]": {"details": "28th day, 2 g/kg glucose by abdomen injection"}},
  "data": [
    {"smiles": "CN(C)C(=N)N=C(N)N", "note": "[Metformin, metformin]", "values": [
      {"measurement": "Glycerin consumption increase %", "setting": "[1]; [6]", "value": 165.97, "unit": "%"},
      {"measurement": "Glycerin consumption", "setting": "[1]; 24 h after treating", "value": "0.39 ± 0.02", "unit": "mmol/L"},
      {"measurement": "Glucose consumption increase %", "setting": "[2]; [6]", "value": 115.10, "unit": "%"},
      {"measurement": "Glucose consumption", "setting": "[2]; 24 h after treating", "value": "2.83 ± 0.14", "unit": "mmol/L"},
      {"measurement": "Fasting Plasma Glucose (FPG) 7 days after treating", "setting": "[3]; n=10", "value": "18.80 ± 2.77", "unit": "mmol/L"},
      {"measurement": "Fasting Plasma Glucose (FPG) 14 days after treating", "setting": "[3]; n=10", "value": "24.59 ± 4.17", "unit": "mmol/L"},
      {"measurement": "Fasting Plasma Glucose (FPG) 21 days after treating", "setting": "[3]; n=10", "value": "21.18 ± 3.12", "unit": "mmol/L"},
      {"measurement": "Fasting Plasma Glucose (FPG) 28 days after treating", "setting": "[3]; n=10", "value": "20.72 ± 3.03", "unit": "mmol/L"},
      {"measurement": "Weight 28 days after treating", "setting": "[3]; n=10", "value": "31.76 ± 1.74", "unit": "g"},
      {"measurement": "FPG Reduce % 7 days after treating", "setting": "[3]; [7]", "value": 21.7, "unit": "%"},
      {"measurement": "FPG Reduce % 14 days after treating", "setting": "[3]; [7]", "value": 17.1, "unit": "%"},
      {"measurement": "FPG Reduce % 21 days after treating", "setting": "[3]; [7]", "value": 29.5, "unit": "%"},
      {"measurement": "FPG Reduce % 28 days after treating", "setting": "[3]; [7]", "value": 31.3, "unit": "%"},
      {"measurement": "Cell increase %", "setting": "[4]", "value": 0.28, "unit": "%"},
      {"measurement": "Cell survival %", "setting": "[4]", "value": "100.28 ± 1.93Δ %"},
      {"measurement": "Area under the glucose load curve (ADC, mmol · h/L)", "setting": "[5]; 28th day, 0-240 min, trapezoid area method", "value": "106.05 ± 12.0", "unit": "mmol·h/L"},
      {"measurement": "Plasma Glucose after glucose load 30 min", "setting": "[5]; [8]", "value": "31.68 ± 2.78", "unit": "mmol/L"},
      {"measurement": "Plasma Glucose after glucose load 60 min", "setting": "[5]; [8]", "value": "31.19 ± 3.42", "unit": "mmol/L"},
      {"measurement": "Plasma Glucose after glucose load 120 min", "setting": "[5]; [8]", "value": "27.43 ± 4.37", "unit": "mmol/L"},
      {"measurement": "Plasma Glucose after glucose load 240 min", "setting": "[5]; [8]", "value": "20.49 ± 2.58", "unit": "mmol/L"},
      {"measurement": "AUC reduce %", "setting": "[5]; 28th day, vs high plasma glucose model group", "value": 18.2, "unit": "%"},
      {"measurement": "Fasting Plasma Glucose (FPG, mmol/L)", "setting": "[5]; 28th treating day, before glucose load", "value": "20.72 ± 3.03", "unit": "mmol/L"}
    ]}
  ]
}
